Series [1] has as its target T1, hemoglobin vesicle (methemoglobin formation) (Homo sapiens, UniProt P68871+P69905).
T1 construct: obtained by purification of human red cells derived from the donated blood; from tissue; host or cells: human red cells from donated blood
The series is described as follows: Autoxidation of hemoglobin vesicle in the atmospheric air (37° C.), rate of methemoglobin from absorbance ratio 405/430 nm. The class given is biochemical. The following applies: for Time required for 50% metHb formation: control 34.0; for Initial rate of metHb formation: control 1.3; for effect to inhibit methemoglobin formation (FIG. 1): encapsulated in hemoglobin vesicle, same manner as Example 1. As to the method: Otherwise, such components were not added to the above hemoglobin solution. Thereafter, using Remolino™ (manufactured by Millipore Japan), each of the obtained mixtures was filtrated through an FM microfilter with a pore size of 0.22 μm (manufactured by Fuji Photo Film Co., Ltd.), so as to obtain a processed hemoglobin solution. Mixed lipid powders (a mixture consisting of phosphatidylcholine, cholesterol, and DPEA; manufactured by Nippon Fine Chemical) were added, little by little, to the hemoglobin solution, resulting in the concentration of lipid of 4.5 wt %. The mixture was then stirred at 4° C. for 12 hours, so as to obtain a multilayer vesicle, in which hemoglobin had been encapsulated. The particle diameter and the number of coating layers were regulated by the extrusion method using Remolino. The FM microfilters were used in the order of pore sizes of 3, 0.8, 0.65, 0.45, 0.3, and 0.22 μm. The obtained hemoglobin vesicle dispersion was diluted with a saline solution. The diluted solution was subjected to ultracentrifugation (50,000 g, 40 minutes), and the supernatant hemoglobin solution was then eliminated by aspiration. Thereafter, a polyoxyethylene-binding lipid [N-(monomethoxy polyethylene glycol-carbamyl)distearoyl phosphatidyl ethanolamine; the molecular weight of the polyethylene glycol chain: 5,300] dispersed in a saline solution was added thereto, at an amount corresponding to 0.3 mol % of the lipid on the outer surface of the vesicle. The mixture was stirred at 25° C. for 2 hours, so as to modify the surface of the hemoglobin vesicle with polyethylene glycol. The concentration of hemoglobin was set at 10 g/dL, and the mixed solution was then filtrated through a 0.45-μm filter (Dismic-25; […]), so as to obtain a polyethylene glycol-modified hemoglobin vesicle.
Each sample was collected over time. Thereafter, the rate of methemoglobin was calculated from the ratio of the absorbance of the hemoglobin vesicle solution at 405 nm to that of at 430 nm.
A hemoglobin vesicle dispersion containing each of a tyrosine derivative, various types of antioxidants, and various types of phenol derivatives, at certain concentrations, was produced. Thereafter, the rate of methemoglobin formation was measured in the same manner as in Example 1.
Thereafter, the rate of 50% methemoglobin formation was measured in the same manner as in Example 1.
Thereafter, the time required for 50% methemoglobin formation was measured in the same manner as in Example 1.

The target in series [2] is T1, hemoglobin vesicle (methemoglobin formation). The series is described as follows: Autoxidation of hemoglobin vesicle in the atmospheric air (4° C.), chilled storage. The class given is biochemical. The following applies: [L-tyrosine]=1 mM. As to the method:
As a result, a slight amount of dityrosine was confirmed. Thereafter, this experiment was performed on a mixture obtained by adding hydrogen peroxide to a methemoglobin solution containing L-tyrosine. As a result, a large amount of dityrosine was confirmed. This is because of the peroxidase activity of methemoglobin. Thereafter, the change in methemoglobin concentration was observed during chilled storage (4° C.).
Each sample was collected over time. Thereafter, the rate of methemoglobin was calculated from the absorbance ratio. […] 1 month later, the rate of methemoglobin were 4.4% and 9.3%, respectively. 3 months later, they were 10.2% and 24.3%, respectively.

Series [3] deals with T2, hemoglobin (Homo sapiens, UniProt P68871+P69905). The series is described as follows: Oxygen dissociation curve of hemoglobin mixed with L-tyrosine. The class given is biochemical.
In series [4] the target is T2, hemoglobin. The series is described as follows: Isothermal titration microcalorimetry of L-tyrosine with hemoglobin. The class given is binding.
A short description of series [5]: Maximum dissolvable concentration of L-tyrosine. The class given is physicochemical.
In series [6] the target is hemoglobin solution in an oxy state (methemoglobin formation) (Homo sapiens, UniProt P68871+P69905). The series is described as follows: Repeated addition of hydrogen peroxide to oxyhemoglobin solution, cyanomethemoglobin method. The class given is biochemical. The following applies: 60 minutes; 310 μM hydrogen peroxide every 10 minutes, 37° C., air; 5 g/dL oxyhemoglobin; 0.5 wt % methemoglobin and/or 1 mM L-tyrosine. As to the method:
Thereafter, 310 μM hydrogen peroxide (the same concentration as that of heme in methemoglobin) was added to the above solution, every 10 minutes, for 60 minutes in the atmospheric air at 37° C., while stirring. 300 μl of a sample was collected immediately before addition of each hydrogen peroxide, and 20 μl of catalase (5,000 units) was promptly added to each sample, so as to eliminate the hydrogen peroxide. Thereafter, the rate of methemoglobin was calculated by the cyanomethemoglobin method.

T2 sequence (P69905 2-142 limits assumed): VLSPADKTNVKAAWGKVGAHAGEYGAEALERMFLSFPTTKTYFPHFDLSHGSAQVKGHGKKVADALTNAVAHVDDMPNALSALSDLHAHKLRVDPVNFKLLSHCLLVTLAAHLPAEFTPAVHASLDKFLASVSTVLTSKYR
T2 sequence (P68871 2-147 limits assumed): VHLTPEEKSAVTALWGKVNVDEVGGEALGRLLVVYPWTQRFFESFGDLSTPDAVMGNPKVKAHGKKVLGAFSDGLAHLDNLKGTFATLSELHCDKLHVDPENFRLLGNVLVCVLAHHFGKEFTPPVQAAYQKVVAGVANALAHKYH
T1 sequence (P69905 2-142 limits assumed): as the sequence (P69905 2-142 limits assumed) above
T1 sequence (P68871 2-147 limits assumed): as the sequence (P68871 2-147 limits assumed) above
Chain of hemoglobin solution in an oxy state (methemoglobin formation) (P69905 2-142 limits assumed): as the sequence (P69905 2-142 limits assumed) above
Chain of hemoglobin solution in an oxy state (methemoglobin formation) (P68871 2-147 limits assumed): as the sequence (P68871 2-147 limits assumed) above

As to 3,4-dihydroxyphenol-L-alanine, the “Time required for 50% metHb formation” value amounted to 30.8 h in series [1] (Table 1, concentration 0.1 mM); 14.4 h in series [1] (Table 1, concentration 1 mM); 8.2 h in series [1] (Table 1, concentration 3 mM). Moreover, the “Initial rate of metHb formation” value in series [1] (concentration 0.1 mM) came to 1.4 % hr; in series [1] (concentration 1 mM), 3.4 % hr; in series [1] (concentration 3 mM), 5.3 % hr.
For the compound `O=C(O)CCc1ccc(O)cc1` [3-(p-hydroxyphenyl)pronionic acid, 3-(p-hydroxy-phenyl)pronionic acid], the “Time required for 50% metHb formation” value in series [1] (Table 1, concentration 1 mM) is 32.2 h; in series [1] (Table 1, concentration 3 mM), 34.2 h; in series [1] (Table 1, concentration not given), 34.7 h. Moreover, the “Initial rate of metHb formation” value is listed as 1.0 % hr in series [1] (concentration 1 mM), 1.2 % hr in series [1] (concentration 3 mM) and 0.9 % hr in series [1] (concentration not given).
For the compound `O=c1cc(-c2ccc(O)cc2)oc2cc(O)cc(O)c12` [Apigenin], the “Time required for 50% metHb formation” value in series [1] (Table 1, concentration 0.1 mM) was determined as 34.8 h; in series [1] (Table 1, concentration 1 mM), 35.6 h. In addition, the “Initial rate of metHb formation” value in series [1] (concentration 0.1 mM) is on record as 1.6 % hr; in series [1] (concentration 1 mM), 1.4 % hr.
On to `N[C@H](Cc1ccc(O)cc1)C(=O)O` [D-tyrosine], for which the “effect to inhibit methemoglobin formation (FIG. 1)” value in series [1] was “does not have such an effect of inhibiting methemoglobin formation”.
For the compound `O=C(O[C@@H]1Cc2c(O)cc(O)cc2O[C@@H]1c1cc(O)c(O)c(O)c1)c1cc(O)c(O)c(O)c1` [Epigallocatechin gallate], the “Time required for 50% metHb formation” value in series [1] (Table 1, concentration 1 mM) was determined as 12.4 h; in series [1] (Table 1, concentration 2 mM), 13.6 h; in series [1] (Table 1, concentration 3 mM), 13.0 h. Also, the “Initial rate of metHb formation” value in series [1] (concentration 1 mM) came to 3.4 % hr; in series [1] (concentration 2 mM), 3.2 % hr; in series [1] (concentration 3 mM), 3.2 % hr.
In the case of `O=c1c(O)c(-c2ccc(O)cc2)oc2cc(O)cc(O)c12` [Kaempferol], in series [1] (Table 1, concentration 1 mM), the “Time required for 50% metHb formation” value amounted to 25.0 h. Also, the “Initial rate of metHb formation” value in series [1] (concentration 1 mM) worked out at 3.1 % hr.
As for `N[C@@H](Cc1ccc(O)cc1)C(=O)O` [L-tyrosine], the rate of methemoglobin is on record as 4.4% in series [2] (4° C., 1 month later, no L-tyrosine: 9.3%); 10.2% in series [2] (4° C., 3 months later, no L-tyrosine: 24.3%); 3.0% in series [2] (when prepared, no L-tyrosine: 3.0%); “approximately 80%” in series [6]. For the same compound, in series [3], the “change in the degree of oxygen affinity” value is recorded as “no change in the degree of oxygen affinity was observed”. The “influence upon the allosteric effect” value in series [3] is given as “no particular influence upon the allosteric effect was found”. In series [4], the “heat of binding with hemoglobin” value is given as “almost no heat of binding was observed”. Besides, the “maximum concentration that can be dissolved” value in series [5] is listed as “approximately 20 mM”. Besides, the “Time required for 50% metHb formation” value in series [1] (Table 1, concentration 0.25 mM) stood at 42.0 h; in series [1] (Table 1, concentration 0.5 mM), 48.0 h; in series [1] (Table 1, concentration 1 mM), 52.0 h; in series [1] (Table 2, concentration 0.25 mM) it was 42.0 h. For the same compound, the entries for the “Initial rate of metHb formation” value in series [1] (concentration 0.25 mM), in series [1] (concentration 0.5 mM) and in series [1] (concentration 1 mM) were 1.1 % hr, 1.0 % hr and 0.9 % hr, respectively. Further, the “effect to inhibit methemoglobin formation (FIG. 1)” value in series [1] is “inhibits methemoglobin formation”.
Turning to `Oc1ccccc1` [Phenol], the “Time required for 50% metHb formation” value worked out at 35.6 h in series [1] (Table 1, concentration 0.1 mM) and 33.2 h in series [1] (Table 1, concentration 1 mM). Also, the “Initial rate of metHb formation” value was determined as 1.1 % hr in series [1] (concentration 0.1 mM) and 1.3 % hr in series [1] (concentration 1 mM).
Turning to `O=C(O)Cc1ccc(O)cc1` [p-hydroxyphenyl acetic acid], the “Time required for 50% metHb formation” value in series [1] (Table 1, concentration 0.1 mM) was determined as 30.6 h; in series [1] (Table 1, concentration 1 mM), 30.2 h; in series [1] (Table 1, concentration 3 mM), 28.3 h. Also, the “Initial rate of metHb formation” value came out at 1.5 % hr in series [1] (concentration 0.1 mM), 1.7 % hr in series [1] (concentration 1 mM) and 1.8 % hr in series [1] (concentration 3 mM).
As to Catalase, the “Time required for 50% metHb formation” value in series [1] (Table 2, concentration 50000 unit/mL) amounted to 45.0 h.
As to L-Tyr-L-Glu, the “Time required for 50% metHb formation” value in series [1] (Table 2, concentration 0.1 mM) amounted to 33.0 h; in series [1] (Table 2, concentration 0.25 mM), 33.0 h.
As to L-Tyr-L-Tyr, the “Time required for 50% metHb formation” value in series [1] (Table 2, concentration 0.1 mM) was 32.0 h; in series [1] (Table 2, concentration 0.25 mM), 32.0 h.

Values taken from patent US20060088583A1, “Artificial oxygen carrier containing preventive agents of metHb formation” (Oxygenix Co., Ltd., priority 2004, published 2006).
